The numbers were not newly measured in patent publication US20100069410A1 (Emisphere Technologies Inc., priority 2006, published 2010), which cites them from elsewhere.

The conditions of this series: orally administered, Physicians' Desk Reference 1994.

Structures are written as SMILES.

On to `Nc1nc2c(ncn2COCCO)c(=O)[nH]1` [acyclovir, 9-(2-hydroxyethoxymethyl) guanine], for which the reported oral bioavailability is 15-30%.
